Laboratory results published in US10215751B2, “Carboxy X rhodamine analogs” (PROMEGA CORPORATION, priority 2011, dated 2019).

Target: T1, NanoLuc luciferase-PKC alpha fusion protein (Homo sapiens, UniProt P17252)
T1 construct: expressed in transfected cells; host or cells: HEK293 cells, transient transfection with pF5 plasmid
Assay: BRET negative control with cells expressing NanoLuc fused to an irrelevant kinase
Format: cell-based
Settings: HEK293 cells expressing NanoLuc-PKCalpha (negative control)
Experimental: HEK293 cells (20,000 cells per well in 96-well format) were transiently transfected (Fugene HD, Promega Corporation) with pF5 plasmid DNA (Promega Corporation) encoding a NanoLuc® luciferase-p38alpha kinase fusion protein. As a negative control, some cells were transfected with a pF5 plasmids DNA encoding a NanoLuc luciferase-PKC alpha fusion protein. On the second day post transfection, the cell medium was replaced with serum-free Opti-MEM (Life Technologies) with or without 50 ug/ml digitonin. […] A furimazine substrate (PBI 3939), a substrate for the NanoLuc luciferase, then was added to cells to a final concentration of 20 uM. BRET ratios were recorded using a Varioskan luminometer at the following wavelengths: 630 nm (acceptor)/450 nm (donor). Acceptor/donor values were used to determine BRET ratio (FIGS. 21 and 22).

Cc1ccc(-n2nc(C(C)(C)C)cc2NC(=O)Nc2ccc(OCCN3CCOCC3)c3ccccc23)cc1 [BIRB796, reference compound]
Effect of unlabeled BIRB796 on BRET signal with PBI 4838: not affected
